The values below come from patent publication US9708370B2, “Azapeptides as CD36 binding compounds” (VALORISATION-RECHERCHE, LIMITED PARTNERSHIP, priority 2007, dated 2017).

One assay deals with CD36 (Rattus norvegicus (Rat), UniProt Q07969). Kind of assay: CD36 receptor covalent photolabelling binding assay, competition with [125I]Tyr-Bpa-Ala-hexarelin on rat cardiac membranes.
Assay [1] deals with vascular sprouting of aortic endothelium (aortic rings). Kind of assay: Inhibition of microvascular sprouting from Matrigel-embedded aortic explants. It counts as cell-based, mice. The source says: FIG. 1 illustrates disruption of vascular sprouting of aortic endothelium by azapeptide compound DBG178. Sprouting aortic endothelium (Von Willebrand factor positive) expressing CD36 is shown in the upper row of FIG. 1a. Vascular sprouting of aortic rings from C57BL/6 and CD36 null mice in the presence of DBG 178 at 10^−7M is shown in the lower row of FIG. 1a. Histograms of microvascular sprouts areas (mean±s.e.m) from aortic explants of C57BL/6 and CD36 null mice exposed to DBG concentrations from 10^−8 to 10^−6 M p<0.01 compared with control (Ctl) is shown in FIG. 1b.
Aortas were excised from 10-week-old male C57/Bl6+/+ and CD36−/− mice of C57/Bl6 background. The fibroadipose tissue was removed and aortas were sectioned into 2-mm-long cross-sections. The +/+ and −/− rings were covered by 50 μl of Matrigel and cultured for 4 days in EGM-2 medium (Clonetics Corp.). Explants were then exposed to vehicle alone or in presence of an azapeptide prototype DBG178 at the indicated concentrations (10^−8 to 10^−6 M) from day 4 to day 6 of culture in EGM-2 medium. Pictures of each individual explant were taken at day 4 and day 6 and EC growth was measured as the surface covered at day 6 minus the surface covered at day 4 Data were subject to analysis of variance (ANOVA) followed by Dunnet's post test to test for differences among groups. Outgrowing cells were characterized by double-labelling with monoclonal vWF antibody (1:100, Dako) and polyclonal CD36 (1:100, Santa Cruz) after acetone fixation using their respective alexa coupled secondary antibodies.

Entries after “also recorded” stand apart in the source; their conditions may differ. Starred links: 1 amine or outer side, 2 acyl side, 3 side chain; linkers in the order of their positions; H or OH if unused. Non-standard residues stand in square brackets, D forms with d. Residues, ends and D or L forms follow the SMILES beside them. azaTyr = O=C(N(Cc1ccc(O)cc1)N[*:1])[*:2]

Sequence of CD36 (Q07969 whole entry): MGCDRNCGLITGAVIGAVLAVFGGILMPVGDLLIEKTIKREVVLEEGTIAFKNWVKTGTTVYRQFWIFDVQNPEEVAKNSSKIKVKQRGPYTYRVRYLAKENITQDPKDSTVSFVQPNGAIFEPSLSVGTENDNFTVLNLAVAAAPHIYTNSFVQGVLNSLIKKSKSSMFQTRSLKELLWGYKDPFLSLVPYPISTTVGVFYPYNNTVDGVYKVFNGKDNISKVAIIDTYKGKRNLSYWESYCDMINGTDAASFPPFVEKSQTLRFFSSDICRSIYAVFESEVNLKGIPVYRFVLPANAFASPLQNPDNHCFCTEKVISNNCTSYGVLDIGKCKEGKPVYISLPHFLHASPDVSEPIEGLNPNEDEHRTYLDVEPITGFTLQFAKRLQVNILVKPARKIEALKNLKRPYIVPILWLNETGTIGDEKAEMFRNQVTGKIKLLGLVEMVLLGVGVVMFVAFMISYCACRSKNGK

With `C[C@H](NC(=O)[C@@H](Cc1c[nH]c2ccccc12)NC(=O)[C@@H](N)Cc1cnc[nH]1)C(=O)NN(Cc1ccc(O)cc1)C(=O)N[C@H](Cc1ccccc1)C(=O)N[C@@H](CCCCN)C(N)=O` [DBG178p, His-D-Trp-Ala-azaTyr-D-Phe-Lys-NH2] (H-H[dW]A[azaTyr][dF]K-NH2), the IC50 (in general, the point on the concentration scale where inhibition reaches its midpoint) on CD36 (Table 3, rat cardiac membranes, [125I]Tyr-Bpa-Ala-hexarelin as radioligand, read-out: IC50, binding affinity of aza peptide derivatives towards CD36) was determined as 28 µM. The “binding activity/affinity at CD36 in words” value on CD36 (compared with parent peptide GHRP-6 or hexarelin) was “maintaining the binding activity”. Also, the “inhibition of vascular sprouting of aortic rings” value in assay [1] (aortic rings from C57BL/6 mice, 10^−7 to 10^−6 M) is “disrupt significantly; also recorded: significantly inhibited”. Besides, the “inhibitory effect on vascular sprouting of aortic rings” value in assay [1] (aortic rings from CD36 null mice) was “not detected”.
